Measured values from ChEMBL document CHEMBL3045663, “Synthesis and Activity of Novel Acaricidal/Insecticidal 2, 4-Diphenyl-1, 3-oxazolines” (J Pestic Sci, 2002).
≈ marks a conversion by molar mass, not a printed value.

What was measured:
[1] = test system: Tetranychus urticae; assay: Acaricidal activity against Tetranychus urticae (two-spotted spider mite) in compound treated kidney bean leaf assessed as mortality of egg at 1000 ppm at 24 degC measured after 1 week; assay type: functional; conditions: 168 h
[2] = test system: Tetranychus urticae; assay: Acaricidal activity against Tetranychus urticae (two-spotted spider mite) in compound treated kidney bean leaf assessed as larvicidal activity; assay type: functional
[3] = test system: Myzus persicae; assay: Insecticidal activity against Myzus persicae (green peach aphid) in compound treated radish leaf assessed as mortality at 500 ppm; assay type: functional
[4] = test system: Nephotettix cincticeps; assay: Insecticidal activity against Nephotettix cincticeps (green rice leafhopper) in compound treated rice seedlings assessed as mortality at 500 ppm; assay type: functional
[5] = test system: Plutella xylostella; assay: Insecticidal activity against Plutella xylostella (diamondback moth) in compound treated radish leaf assessed as mortality at 500 ppm; assay type: functional
[6] = test system: Chilo suppressalis; assay: Insecticidal activity against Chilo suppressalis (rice stem borer) larvae assessed as inhibition of incorporation of N-acetyl-[1-14C]glucosamine; assay type: functional, organism-based

SMILES	mortality at 1000 ppm [1] [%]	LC50 [2] [mg/L]	mortality at 500 ppm [3] [%]	mortality at 500 ppm [4] [%]	mortality at 500 ppm [5] [%]	EC50 [6] [µM]
CCSc1ccccc1C1=NC(c2ccccc2)CO1 (stereo unspecified)	10	100 (≈ 353 µM)	0	10	10	–
Fc1ccccc1C1=NC(c2ccccc2)CO1 (stereo unspecified)	10	10 (≈ 41.4 µM)	0	10	35	–
COc1ccccc1C1=NC(c2ccccc2)CO1 (stereo unspecified)	0	10 (≈ 39.5 µM)	0	10	10	–
Cc1ccccc1C1=NC(c2ccccc2)CO1 (stereo unspecified)	60	100 (≈ 421 µM)	60	0	60	–
Brc1ccccc1C1=NC(c2ccccc2)CO1 (stereo unspecified)	10	0.1 (≈ 0.331 µM)	0	0	60	–
Clc1ccccc1C1=NC(c2ccccc2)CO1 (stereo unspecified)	10	1 (≈ 3.88 µM)	0	10	35	–
CCOc1ccccc1C1=NC(c2ccccc2)CO1 (stereo unspecified)	0	> 1000	0	0	0	–
c1ccc(C2=NC(c3ccccc3)CO2)cc1 (stereo unspecified)	0	10 (≈ 44.8 µM)	0	0	60	–
c1ccc(Oc2ccccc2C2=NC(c3ccccc3)CO2)cc1 (stereo unspecified)	0	100 (≈ 317 µM)	0	0	0	–
CSc1ccccc1C1=NC(c2ccccc2)CO1 (stereo unspecified)	0	100 (≈ 371 µM)	0	0	35	–
O=C(NC(=O)c1c(F)cccc1F)Nc1ccc(Cl)cc1 [DIFLUBENZURON]	–	–	–	–	–	0.02
